kon data for five compounds are collected here from BindingDB's records for doi:10.1021/jm970079r (Virginia Polytechnic Institute and State University, 1997).

Assay [1] has as its target T1, Amine oxidase [flavin-containing] A (Homo sapiens, UniProt P21397).
T1 sequence (P21397 whole entry): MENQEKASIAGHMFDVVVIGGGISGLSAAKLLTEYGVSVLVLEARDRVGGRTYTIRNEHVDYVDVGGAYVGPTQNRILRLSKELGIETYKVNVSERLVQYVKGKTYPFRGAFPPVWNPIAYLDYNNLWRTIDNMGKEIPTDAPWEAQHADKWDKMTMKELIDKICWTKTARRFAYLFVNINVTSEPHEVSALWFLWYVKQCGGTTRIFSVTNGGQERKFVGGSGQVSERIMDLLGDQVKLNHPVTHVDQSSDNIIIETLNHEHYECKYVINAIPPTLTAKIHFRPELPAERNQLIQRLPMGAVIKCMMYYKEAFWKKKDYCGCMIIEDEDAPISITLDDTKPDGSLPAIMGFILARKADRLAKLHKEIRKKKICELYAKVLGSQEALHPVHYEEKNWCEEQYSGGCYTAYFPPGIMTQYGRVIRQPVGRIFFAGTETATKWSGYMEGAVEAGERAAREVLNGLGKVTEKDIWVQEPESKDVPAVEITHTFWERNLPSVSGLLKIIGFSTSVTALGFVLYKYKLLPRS
The assay is described as follows: Tested for inhibition- binding affinity against monoamine oxidase A catalyzed oxidation. The conditions noted are these: read-out: kon (M-1-s-1).

Assay [2] deals with T2, Amine oxidase [flavin-containing] B (Bos taurus, UniProt P56560).
T2 sequence (P56560 whole entry): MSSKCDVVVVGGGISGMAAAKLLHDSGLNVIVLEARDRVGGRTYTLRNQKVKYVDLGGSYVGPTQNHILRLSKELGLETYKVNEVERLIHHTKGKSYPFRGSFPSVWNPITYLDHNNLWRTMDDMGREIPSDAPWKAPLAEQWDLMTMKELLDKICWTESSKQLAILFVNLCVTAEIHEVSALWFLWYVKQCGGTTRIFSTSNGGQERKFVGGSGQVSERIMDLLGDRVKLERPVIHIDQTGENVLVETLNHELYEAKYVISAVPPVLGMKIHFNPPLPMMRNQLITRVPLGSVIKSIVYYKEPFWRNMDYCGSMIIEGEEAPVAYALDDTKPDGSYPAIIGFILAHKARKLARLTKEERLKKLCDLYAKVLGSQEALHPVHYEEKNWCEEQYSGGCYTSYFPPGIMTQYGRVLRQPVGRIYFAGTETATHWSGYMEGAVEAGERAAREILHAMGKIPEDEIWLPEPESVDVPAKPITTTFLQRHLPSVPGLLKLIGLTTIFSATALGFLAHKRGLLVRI
The assay is described as follows: Tested for inhibition- binding affinity against monoamine oxidase B catalyzed oxidation. The settings on record: read-out: kon (M-1-s-1).

Each structure is given as a SMILES string.

As a reminder, the kon is the second-order rate constant of association. On to `C1=C(c2ccccc2-c2ccccc2)CCN(C2CC2)C1`, for which, in assay [1], the kon is 220000 M⁻¹ s⁻¹.

Regarding `C1=C(c2ccccc2)CCN(C2CC2)C1`, the kon in assay [1] is 50000 M⁻¹ s⁻¹; in assay [2], 180000 M⁻¹ s⁻¹. The matching figures for `C1=C(c2ccc3ccccc3c2)CCN(C2CC2)C1`: 380000 M⁻¹ s⁻¹ and 150000 M⁻¹ s⁻¹. For `C1=C(c2cccc(-c3ccccc3)c2)CCN(C2CC2)C1` the same measures were 680000 M⁻¹ s⁻¹ and 440000 M⁻¹ s⁻¹. For `C1=C(c2cccc3ccccc23)CCN(C2CC2)C1` the same measures were 400000 M⁻¹ s⁻¹ and 110000 M⁻¹ s⁻¹.
